Assay results as given in patent US20050209157A1, “Short bioactive peptides and methods for their use” (priority 2001, published 2005).
Values joined by “and” are separate entries in the source; they are usually repeats but may differ in a detail not shown here. Equal entries are not always repeated. Where two headings read alike, the source gives them in different places. No end group written: not given here.

How the values were obtained:
P. aeruginosa H374 = format: cell-based, Pseudomonas aeruginosa; conditions: in µg/mL
[1] = tested on: Pseudomonas aeruginosa H187; format: cell-based; conditions: in µg/mL
[2] = tested on: Pseudomonas aeruginosa 100609; format: cell-based; conditions: Table 9; in µg/mL
[3] = tested on: Pseudomonas aeruginosa 105663; format: cell-based; conditions: Table 9; in µg/mL
[4] = tested on: Candida glabrata ATCC15126; assay: Antimicrobial assays II, NCCLS broth microdilution MIC; format: cell-based; conditions: in µg/mL
S. epidermidis C621 = format: cell-based, Staphylococcus epidermidis; conditions: Table 13; in µg/mL
S. aureus (MRSA) = format: cell-based, Staphylococcus aureus; conditions: Table 13, strain SAP0017; in µg/mL
Candida albicans 105 = format: cell-based; conditions: Table 13; in µg/mL
E. coli UB1005 = format: cell-based, Escherichia coli; conditions: Table 12
S. typhimurium 14028S = format: cell-based, Salmonella typhimurium; conditions: Table 12

Row | Compound | MIC P. aeruginosa H374 (P. aeruginosa H374; Table 9) | MIC P. aeruginosa H187 ([1]; Table 8) | MIC P. aeruginosa H187 ([1]; Table 9) | MIC P. aeruginosa Tb 100609 [2] | MIC P. aeruginosa Tb 105663 [3] | MIC C. glabrata ATCC15126 ([4]; Table 8) | MIC S. epidermis C621 (S. epidermidis C621) | MIC P. aeruginosa H374 (P. aeruginosa H374; Table 12) | MIC P. aeruginosa H187 ([1]; Table 12) | MIC S. aureus SAP0017 (S. aureus (MRSA)) | MIC C. albicans 105 (Candida albicans 105) | MIC E. coli UB1005 (E. coli UB1005) [µg/mL] | MIC C. glabrata ATCC15126 ([4]; Table 13) | MIC S. typhimurium 14028S (S. typhimurium 14028S) [µg/mL]
1 | FAKKLKKLAKLAKKL-NH2 [P46 (28)] | 4 | 8 and 16 | 16 | 16 | 32 | 32 | – | – | – | – | – | – | – | –
2 | FAKFLAKFLKKAL-NH2 [P111 (75)] | 8 | – | 8 | 16 | 32 | – | 4 | 8 | 8 | 8 | 32 | 16 | 32 | 16
3 | KYKKALKKLAKLL-NH2 [P146 (108)] | 2 | – | 4 | 8 | 8 | – | 8 | 2 | 4 | 16 | 8 | 2 | 16 | 4
4 | FAKLLAKALKKLL-NH2 [P55 (35)] | 8 | – | 8 | 8 | 16 | – | 2 | 8 | 8 | 4 | 16 | 4 | 8 | 4
5 | CC(C)C[C@H](NC(=O)[C@H](C)NC(=O)[C@H](CC(C)C)NC(=O)[C@H](CCCCN)NC(=O)[C@H](C)NC(=O)[C@H](CC(C)C)NC(=O)[C@H](CCCCN)NC(=O)[C@H](CCCCN)NC(=O)[C@H](C)NC(=O)[C@H](CC(C)C)NC(=O)[C@H](CCCCN)NC(=O)[C@H](C)NC(=O)[C@H](CC(C)C)NC(=O)[C@H](CCCCN)NC(=O)[C@H](CCCCN)NC(=O)[C@H](C)NC(=O)[C@@H](N)Cc1ccccc1)C(=O)O [P61 (41)] | 4 | 8 | 8 | 16 | 8 | 32 | – | – | – | – | – | – | – | –
6 | MPKWKVFKKIEKVGRNIRNGIVKAGPAIAVLGEAKALG-NH2 [P12 (5)] | 8 | 16 | 16 | 8 | 8 | 128 | – | – | – | – | – | – | – | –
7 | KWKLFKKKTKLFKKFAKKLAKKL-NH2 [P73 (49)] | 8 | – | 16 | 16 | 16 | – | 4 | 8 | 16 | 16 | 32 | 8 | 128 | 16
8 | LPKWKVFKKIEKVGRNIRNGIVKAGPAIAVLGEAKALG-NH2 [P306 (150)] | 8 | 16 | 16 | 16 | 32 | >128 | – | – | – | – | – | – | – | –
9 | FAVGLRAIKRALKKLRRGVRKVAKDL-NH2 [P157 (119)] | 8 | 8 | 8 | 16 | 16 | 64 | – | – | – | – | – | – | – | –
10 | FAKKLAKKLKKLAKLALAK-NH2 [P41 (23)] | 4 | 8 | 8 | 8 | 8 | 32 | – | – | – | – | – | – | – | –
11 | FAKKLAKLAKKALAL-NH2 [P39 (21)] | 16 | 32 | 32 | 32 | 32 | 16 | – | – | – | – | – | – | – | –
12 | CC(C)C[C@H](NC(=O)[C@H](C)NC(=O)[C@H](CC(C)C)NC(=O)[C@H](C)NC(=O)[C@H](CC(C)C)NC(=O)[C@H](CCCCN)NC(=O)[C@H](C)NC(=O)[C@H](CC(C)C)NC(=O)[C@H](CCCCN)NC(=O)[C@H](CCCCN)NC(=O)[C@H](C)NC(=O)[C@H](CC(C)C)NC(=O)[C@H](CCCCN)NC(=O)[C@H](CCCCN)NC(=O)[C@H](CC(C)C)NC(=O)[C@H](CCCCN)NC(=O)[C@H](CCCCN)NC(=O)[C@H](C)NC(=O)[C@H](CC(C)C)NC(=O)[C@H](CCCCN)NC(=O)[C@H](CCCCN)NC(=O)[C@H](C)NC(=O)[C@@H](N)Cc1ccccc1)C(N)=O [P11 (4)] | 16 | – | 16 | 16 | 16 | – | – | – | – | – | – | – | – | –
13 | FAKKLAKKLKKLAKKLAK-OH [P71 (47)] | 4 | 8 | 8 | 16 | 16 | 32 | – | – | – | – | – | – | – | –
